These compounds were tested on HEK293 cells (assay: Preliminary screening as DNA vectors, GFP transfection of HEK293 cells). Details: amino lipid/DOPE liposome with 75 ng plasmid DNA (psin-EGFP-IRES-Puro); number of GFP-expressing cells divided by total nuclei (Hoechst).
Format: cell-based
Procedure, shortened: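 Lipid + DOPE liposomes (NaOAc, pH 5.6) complexed w/ 75 ng psin-EGFP-IRES-Puro, 30 min RT; added to 3-5×10^4 HEK293/well, 37° C. Hoechst 0.2 μg/mL at 20-24 h, imaged after further 20-24 h. Efficiency = GFP+ cells / total nuclei.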

Point of comparison: `CCCCCCCCNc1nc(NCCCN2CCOCC2)nc(SCCCCCCC)n1` [S7N8 D8], “Absolute DNA transfection efficiency in HEK293 cells” value 2.7%. Against it:
- CCCCCCCCNc1nc(NCCCN2CCN(C)CC2)nc(SCCCCCCC)n1 [S7N8 D9] — higher, 14.9%
- CCCCCCCCNc1nc(NCC2CCN(C)CC2)nc(SCCCCCCC)n1 [S7N8 D10] — higher, 9.5%
- CCCCCCCCCNc1nc(NCCN(C)C)nc(SCCCCCCC)n1 [S7N9 D1] — higher, 28.8%
- CCCCCCCCCNc1nc(NCCN2CCOCC2)nc(SCCCCCCC)n1 [S7N9 D2] — higher, 13.9%
- CCCCCCCCCNc1nc(NCCN2CCCC2)nc(SCCCCCCC)n1 [S7N9 D3] — higher, 12.3%
- CCCCCCCCCNc1nc(NCCN2CCCCC2)nc(SCCCCCCC)n1 [S7N9 D4] — higher, 13.0%
- CCCCCCCCCNc1nc(NCCN2CCN(C)CC2)nc(SCCCCCCC)n1 [S7N9 D5] — higher, 22.0%
- CCCCCCCCCNc1nc(NCCCN(C)C)nc(SCCCCCCC)n1 [S7N9 D6] — higher, 25.9%
- CCCCCCCCCNc1nc(NCCN(CC)CC)nc(SCCCCCCC)n1 [S7N9 D7] — higher, 33.2%
- CCCCCCCCCNc1nc(NCCCN2CCOCC2)nc(SCCCCCCC)n1 [S7N9 D8] — higher, 4.6%
- CCCCCCCCCNc1nc(NCCCN2CCN(C)CC2)nc(SCCCCCCC)n1 [S7N9 D9] — higher, 22.8%
- CCCCCCCCCNc1nc(NCC2CCN(C)CC2)nc(SCCCCCCC)n1 [S7N9 D10] — higher, 15.0%
- CCCCCCCCCCCNc1nc(NCCN(C)C)nc(SCCCCCCC)n1 [S7N11 D1] — higher, 20.3%
- CCCCCCCCCCCNc1nc(NCCN2CCOCC2)nc(SCCCCCCC)n1 [S7N11 D2] — higher, 31.1%
- CCCCCCCCCCCNc1nc(NCCN2CCCC2)nc(SCCCCCCC)n1 [S7N11 D3] — higher, 25.3%
- CCCCCCCCCCCNc1nc(NCCN2CCCCC2)nc(SCCCCCCC)n1 [S7N11 D4] — higher, 6.9%
- CCCCCCCCCCCNc1nc(NCCN2CCN(C)CC2)nc(SCCCCCCC)n1 [S7N11 D5] — higher, 43.7%
- CCCCCCCCCCCNc1nc(NCCCN(C)C)nc(SCCCCCCC)n1 [S7N11 D6] — higher, 42.1%
- CCCCCCCCCCCNc1nc(NCCN(CC)CC)nc(SCCCCCCC)n1 [S7N11 D7] — higher, 9.6%
- CCCCCCCCCCCNc1nc(NCCCN2CCOCC2)nc(SCCCCCCC)n1 [S7N11 D8] — higher, 13.9%
- CCCCCCCCCCCNc1nc(NCCCN2CCN(C)CC2)nc(SCCCCCCC)n1 [S7N11 D9] — higher, 43.9%
- CCCCCCCCCCCNc1nc(NCC2CCN(C)CC2)nc(SCCCCCCC)n1 [S7N11 D10] — higher, 45.9%
- CCCCCCCCCCCCNc1nc(NCCN(C)C)nc(SCCCCCCC)n1 [S7N12 D1] — higher, 18.2%
- CCCCCCCCCCCCNc1nc(NCCN2CCOCC2)nc(SCCCCCCC)n1 [S7N12 D2] — higher, 25.6%
- CCCCCCCCCCCCNc1nc(NCCN2CCCC2)nc(SCCCCCCC)n1 [S7N12 D3] — higher, 17.4%
- CCCCCCCCCCCCNc1nc(NCCN2CCCCC2)nc(SCCCCCCC)n1 [S7N12 D4] — higher, 9.7%
- CCCCCCCCCCCCNc1nc(NCCN2CCN(C)CC2)nc(SCCCCCCC)n1 [S7N12 D5] — higher, 35.1%
- CCCCCCCCCCCCNc1nc(NCCCN(C)C)nc(SCCCCCCC)n1 [S7N12 D6] — higher, 54.6%
- CCCCCCCCCCCCNc1nc(NCCN(CC)CC)nc(SCCCCCCC)n1 [S7N12 D7] — higher, 5.5%
- CCCCCCCCCCCCNc1nc(NCCCN2CCOCC2)nc(SCCCCCCC)n1 [S7N12 D8] — higher, 17.7%
- CCCCCCCCCCCCNc1nc(NCCCN2CCN(C)CC2)nc(SCCCCCCC)n1 [S7N12 D9] — higher, 46.4%
- CCCCCCCCCCCCNc1nc(NCC2CCN(C)CC2)nc(SCCCCCCC)n1 [S7N12 D10] — higher, 45.7%
- CCCCCCCCCCCCCNc1nc(NCCN(C)C)nc(SCCCCCCC)n1 [S7N13 D1] — higher, 11.7%
- CCCCCCCCCCCCCNc1nc(NCCN2CCOCC2)nc(SCCCCCCC)n1 [S7N13 D2] — higher, 22.1%
- CCCCCCCCCCCCCNc1nc(NCCN2CCCC2)nc(SCCCCCCC)n1 [S7N13 D3] — higher, 17.9%
- CCCCCCCCCCCCCNc1nc(NCCN2CCCCC2)nc(SCCCCCCC)n1 [S7N13 D4] — higher, 6.4%
- CCCCCCCCCCCCCNc1nc(NCCN2CCN(C)CC2)nc(SCCCCCCC)n1 [S7N13 D5] — higher, 23.3%
- CCCCCCCCCCCCCNc1nc(NCCCN(C)C)nc(SCCCCCCC)n1 [S7N13 D6] — higher, 43.2%
- CCCCCCCCCCCCCNc1nc(NCCN(CC)CC)nc(SCCCCCCC)n1 [S7N13 D7] — higher, 3.1%
- CCCCCCCCCCCCCNc1nc(NCCCN2CCOCC2)nc(SCCCCCCC)n1 [S7N13 D8] — higher, 17.3%
- CCCCCCCCCCCCCNc1nc(NCCCN2CCN(C)CC2)nc(SCCCCCCC)n1 [S7N13 D9] — higher, 36.9%
- CCCCCCCCCCCCCNc1nc(NCC2CCN(C)CC2)nc(SCCCCCCC)n1 [S7N13 D10] — higher, 54.2%
- CCCCCCCCCCCCCCCNc1nc(NCCN(C)C)nc(SCCCCCCC)n1 [S7N15 D1] — higher, 19.5%
- CCCCCCCCCCCCCCCNc1nc(NCCN2CCOCC2)nc(SCCCCCCC)n1 [S7N15 D2] — higher, 14.1%
- CCCCCCCCCCCCCCCNc1nc(NCCN2CCCC2)nc(SCCCCCCC)n1 [S7N15 D3] — higher, 31.4%
- CCCCCCCCCCCCCCCNc1nc(NCCN2CCCCC2)nc(SCCCCCCC)n1 [S7N15 D4] — higher, 4.9%
- CCCCCCCCCCCCCCCNc1nc(NCCN2CCN(C)CC2)nc(SCCCCCCC)n1 [S7N15 D5] — higher, 20.4%
- CCCCCCCCCCCCCCCNc1nc(NCCCN(C)C)nc(SCCCCCCC)n1 [S7N15 D6] — higher, 15.9%
- CCCCCCCCCCCCCCCNc1nc(NCCN(CC)CC)nc(SCCCCCCC)n1 [S7N15 D7] — higher, 7.2%
- CCCCCCCCCCCCCCCNc1nc(NCCCN2CCOCC2)nc(SCCCCCCC)n1 [S7N15 D8] — higher, 7.9%
- CCCCCCCCCCCCCCCNc1nc(NCCCN2CCN(C)CC2)nc(SCCCCCCC)n1 [S7N15 D9] — higher, 17.6%
- CCCCCCCCCCCCCCCNc1nc(NCC2CCN(C)CC2)nc(SCCCCCCC)n1 [S7N15 D10] — higher, 30.9%
- CCCCCCCCCCCCCCCCNc1nc(NCCN(C)C)nc(SCCCCCCC)n1 [S7N16 D1] — higher, 20.0%
- CCCCCCCCCCCCCCCCNc1nc(NCCN2CCOCC2)nc(SCCCCCCC)n1 [S7N16 D2] — higher, 12.9%
- CCCCCCCCCCCCCCCCNc1nc(NCCN2CCCC2)nc(SCCCCCCC)n1 [S7N16 D3] — higher, 21.2%
- CCCCCCCCCCCCCCCCNc1nc(NCCN2CCCCC2)nc(SCCCCCCC)n1 [S7N16 D4] — higher, 2.9%
- CCCCCCCCCCCCCCCCNc1nc(NCCN2CCN(C)CC2)nc(SCCCCCCC)n1 [S7N16 D5] — higher, 18.2%
- CCCCCCCCCCCCCCCCNc1nc(NCCCN(C)C)nc(SCCCCCCC)n1 [S7N16 D6] — higher, 26.2%
- CCCCCCCCCCCCCCCCNc1nc(NCCN(CC)CC)nc(SCCCCCCC)n1 [S7N16 D7] — higher, 6.4%
- CCCCCCCCCCCCCCCCNc1nc(NCCCN2CCOCC2)nc(SCCCCCCC)n1 [S7N16 D8] — higher, 8.1%
- CCCCCCCCCCCCCCCCNc1nc(NCCCN2CCN(C)CC2)nc(SCCCCCCC)n1 [S7N16 D9] — higher, 12.9%
- CCCCCCCCCCCCCCCCNc1nc(NCC2CCN(C)CC2)nc(SCCCCCCC)n1 [S7N16 D10] — higher, 15.8%
- CCCCCCCCCCCCCCCCCCNc1nc(NCCN(C)C)nc(SCCCCCCC)n1 [S7N18 D1] — higher, 10.6%
- CCCCCCCCCCCCCCCCCCNc1nc(NCCN2CCOCC2)nc(SCCCCCCC)n1 [S7N18 D2] — higher, 16.6%
- CCCCCCCCCCCCCCCCCCNc1nc(NCCN2CCCC2)nc(SCCCCCCC)n1 [S7N18 D3] — higher, 16.1%
- CCCCCCCCCCCCCCCCCCNc1nc(NCCN2CCCCC2)nc(SCCCCCCC)n1 [S7N18 D4] — higher, 3.2%
- CCCCCCCCCCCCCCCCCCNc1nc(NCCN2CCN(C)CC2)nc(SCCCCCCC)n1 [S7N18 D5] — higher, 8.2%
- CCCCCCCCCCCCCCCCCCNc1nc(NCCCN(C)C)nc(SCCCCCCC)n1 [S7N18 D6] — higher, 18.4%
- CCCCCCCCCCCCCCCCCCNc1nc(NCCN(CC)CC)nc(SCCCCCCC)n1 [S7N18 D7] — higher, 3.9%
- CCCCCCCCCCCCCCCCCCNc1nc(NCCCN2CCOCC2)nc(SCCCCCCC)n1 [S7N18 D8] — higher, 5.9%
- CCCCCCCCCCCCCCCCCCNc1nc(NCCCN2CCN(C)CC2)nc(SCCCCCCC)n1 [S7N18 D9] — higher, 4.2%
- CCCCCCCCCCCCCCCCCCNc1nc(NCC2CCN(C)CC2)nc(SCCCCCCC)n1 [S7N18 D10] — higher, 16.3%
- CCCCCCCSc1nc(NCCN(C)C)nc(SCCCCCCC)n1 [S7S7 D1] — higher, 7.9%
- CCCCCCCSc1nc(NCCN2CCOCC2)nc(SCCCCCCC)n1 [S7S7 D2] — lower, 2.2%

Source: patent US20230123334A1, “AMINO LIPID COMPOUND, PREPARATION METHOD THEREFOR, AND APPLICATION THEREOF” (SHENZHEN SHENXIN BIOTECHNOLOGY CO., LTD., priority 2020, published 2023)
